One molecule from patent US9556113B2, “Combination uses of dichloroacetate and oxamate, and their prodrugs, for cancer treatment” (The South Dakota Board of Regents, priority 2014, dated 2017) can be followed below.

The subject of one test is E6E7/Ras cells. The experiment in a line: Extracellular acidification rate (ECAR), Seahorse XF24. The format is cell-based, mouse. Particulars: added at point B with additional glucose. As for the experimental part: FIG. 6 illustrates the reduction of extracellular acidification rate (ECAR) by prodrugs AT-N4-001 and AT-N4-002. (A) ECAR was measured using a Seahorse XF24 instrument. At time point A glucose was added to the cultures. At time point B the indicated drugs were added with additional glucose. At time point C 2-deoxyglucose was added to block glycolysis. (B) Bar graph of ECAR at the time point indicated as Rate 8 in A.
AT-N4-001 and AT-N4-002 should each release two molecules of DCA and one molecule of oxamate. Both DCA and oxamate are expected to reduce cellular lactate production. Therefore, we examined the changes in lactate after treatment of E6E7/Ras cells with the prodrugs. E6E7/Ras cells were seeded into 100 mm dishes and the next day treated with 5 mM AT-N4-001, 5 mM AT-N4-002, 5 mM DCA plus 5 mM oxamate, or 5 mM DCA alone. Culture medium was collected after 4 hours of treatment and lactate levels were determined (FIG. 5). […] To confirm the effects of these compounds on lactate production, the extra cellular acidification rate (ECAR) was measured using a Seahorse XF24 Extracellular Flux analyzer. Since lactate is transported from cells together with a proton, acidification of the culture medium (ECAR) is an estimate of lactate production and the glycolytic rate of cells. In the experiment shown in FIG. 6A, ECAR measurements were initiated in the absence of glucose. […]

The subject of test [1] is HPV+ HNSCC tumor. In words: Tumor growth and survival with chemoradiation in RAG-1 immune-deficient mice. The format is in vivo, RAG-1 mice. Particulars: in combination with chemoradiation. On the procedure: FIG. 9 illustrates the effect of AT-N4-002 prodrug on tumor growth (A) and animal survival (B) in RAG-1 immune-deficient mice. Treatment conditions are the same as those described in FIG. 7.
To examine whether the prodrug AT-N4-002 also requires an immune response to control tumor growth, experiments were performed in RAG-1 mice. Based on our previous experience with DCA, we hypothesized that survival and tumor clearance would not be observed in these immune deficient mice following treatment with AT-N4-002. […] These immune-independent effects of AT-N4-002 on tumor growth in immune-deficient mice could be due to direct effects on tumor cell growth or cell death as described in Example 9, below.

Test [2] concerns HPV+ HNSCC tumor. The experiment in a line: IHC of tumors for cleaved caspase 3 and Ki67. The format is in vivo, wild-type mice. The conditions noted are these: one week treatment plus one round of CRT. From the text:
FIG. 10 illustrates Effect of AT-N4-002 on tumor cell apoptosis and cell proliferation. (A) Sections of tumors from mice treated either with chemo-radiation (Tx) or chemoradiation plus AT-N4-002 were subjected to IHC to detect cleaved caspase 3 or Ki67. (B) Cleaved caspase 3 positive cells were counted in 5 random fields from the IHC experiment shown in A. (C) The percent of Ki67 positive cells from the IHC experiment shown in A.
To examine potential direct, immune-independent effects of the prodrug on tumors, tumor bearing wild-type mice were treated for one week with AT-N4-002 plus one round of chemoradiation. Tumors were then harvested and processed for immunohistochemical detection of Ki67, a proliferation marker, and cleaved caspase 3, a marker for apoptosis (FIG. 10). […] Such direct effects on the tumor cells could be responsible for the reduced tumor growth observed in immune deficient mice.

With `NC(=O)C(=O)OCC(COC(=O)C(Cl)Cl)OC(=O)C(Cl)Cl` (centres unmarked) [AT-N4-002, 3-(2-amino-2-oxoacetoxy)propane-1,2-diyl bis(2,2-dichloroacetate)], the “increase in ECAR after glucose addition (FIG. 6)” value in the test with E6E7/Ras cells is on record as “completely blocked”. Also, in the test on HPV+ HNSCC tumor [1], the “survival in RAG-1 mice (FIG. 9B)” value is given as “lengthened survival” and the “tumor growth in RAG-1 mice (FIG. 9A)” value is on record as “slowed tumor growth”. Also, in the test with HPV+ HNSCC tumor [2], the “Ki67 positive cells in tumor (FIG. 10C)” value is “appeared to decrease” and the “cleaved caspase 3 positive cells in tumor compared to CRT alone (FIG. 10B)” value is “significantly increased”.
